Reference: article PMC6980506, “Comparative pharmacokinetics and pharmacodynamics of the advanced Retinol-Binding Protein 4 antagonist in dog and cynomolgus monkey” (PLoS ONE, 2020)
“And” between values parts separate entries of the source, which are not always exact repeats. Equal values may be shown once. Read-outs that look alike come from different tables or passages of the source.

Tests used:
[1] = Single dose pharmacokinetic study in cynomolgus monkey; assay type: in vivo
Method: Pharmacokinetic studies were conducted in male beagle dogs and male cynomolgus monkeys at SRI International, Menlo Park, CA. General procedures for animal care and housing were in accordance with the National Research Council (NRC) Guide for the Care and Use of Laboratory Animals (1996) and the Animal Welfare Standards incorporated in 9 CFR Part 3, 1991 and complied with guidelines set forth by the ARVO Animal Statement for the Use of Animals in Ophthalmic and Vision Research. During the course of the PK experiments, cynomolgus monkeys were individually housed in stainless steel primary enclosures in an AAALAC-accredited facility. Animals were fed a commercial monkey chow, and supplemental food was provided (fresh fruits, vegetables, seeds, and nuts). Reverse osmosis-purified drinking water was available at all times. Cynomolgus monkeys were maintained on a 12:12 hour light:dark cycle at the 64–84°F temperature and 30–70% humidity. Monkeys had access to enrichment opportunities (grooming devices, foraging devices, activity panels and mirrors) and were provided auditory stimuli and human interaction enrichment throughout the study. Blood samples were collected by venipuncture of a peripheral vein. Animals were acclimated to the squeeze back mechanism in their home cage by repeated, short periods of restraint during general husbandry procedures for at least 2 weeks prior to dosing. Animal were not removed from their cages for collection, and no anesthesia/analgesic agents were used for blood collection. […] For PK experiments, beagle dogs were individually housed in enclosed run (≥ 4 ft x 6 ft). Dogs were exposed to their daily ration of food, Harlan Teklad 2025C Certified Global 25% Protein Dog Diet. Water was provided from the public water supply (municipal tap water) ad libitum. Dogs were maintained on a 12:12 hour light:dark cycle at the 72–73°F temperature and 40–71% humidity. Every effort was made to minimize, if not eliminate, pain and suffering in all animals in this study. No restraining devices were used in blood collecting procedures. Dogs were gentle hand-held to restrain by trained technicians with the dogs foreleg extended for sample collection of blood from cephalic vein. Animals were awake during blood sample collection with no anesthesia/analgesic agents used, and positive reinforcement by the technician was provided following collection. […] All dogs were released back to the colony after the study was completed. Male beagle dogs and male cynomolgus monkey received a single i.v. dose of a test compound at 0.5 mg kg^−1 (dog) and 1 mg kg^−1 (monkey) or a single p.o. dose of a test compound of at 2 mg kg^−1 (dog) and 5 mg kg^−1 (monkey). The number of animals that was used in PK experiments is 3 per study group. Intravenous administration vehicle was 3% DMA/45% PEG300/12% ethanol/40% sterile water; p.o. vehicle was 2% Tween 80 in 0.9% saline. […] Blood samples were processed to plasma. Following protein extraction with acetonitrile, compound concentrations in plasma were measured by LC-MS/MS. The plasma drug level data were analyzed using WinNonlin software package; Model 201 (for i.v. bolus administration);was used for the analysis of i.v. data, and Model 200 (for extravascular administration) was used for the analysis of the p.o. data. Aliquots of pre-dose plasma samples, as well as aliquots of plasma PK samples, were used for the analysis of the plasmabiomarker, RBP4.
Administration to Non-Human Primates
II. MATERIALS AND METHODS

[2] = Metabolic stability in human liver microsomes; assay type: in vitro ADME; conditions: both sexes, pH 7.4, 1 mg/mL, read-out: Microsomal Stability (% Remaining at 30 min)
Method: All measurements were done in duplicate. Pooled mixed gender human donor microsomes, male beagle dog microsomes and male cynomolgus monkey were obtained from BioIVT (Baltimore, MD). […] A mixture containing 50 mM potassium phosphate buffer pH 7.4 and 1 mg/mL liver microsomes was pre-warmed for 10 min at 37°C in a shaking water bath, followed by the addition of test compound. Final DMSO concentration in the reaction mix was 0.1%. […] The final volume of the reaction mixture was 800 μL, containing 1 mg/mL liver microsomes, and 1 μM test compound. Aliquots (100 μL) of reaction mixtures were removed from the incubation plate at pre-defined timepoints and mixed with 150 μL of ice-cold acetonitrile, incubated on ice for 15 min, and samples were centrifuged (3,600 rpm, 10 min, 4°C) to precipitate protein. The supernatants were diluted 1:1 (v/v) with water containing the internal standard and subjected to the LC/MS analysis.

[3] = male, cynomolgus monkey, plasma, po, Cyno, 5.0 mg kg^−1 p.o., mean ± SD, n=3

In the case of `Cc1cc(C(=O)O)nc(N2C[C@H]3C[C@@H](c4ccccc4C(F)(F)F)C[C@H]3C2)n1` [BPN-14136], the concentration at 4 hr ([1]; male, cynomolgus monkey, plasma, po, 5 mg/kg, non-human primate, po 5 mg/kg, 4 hr, read-out: Plasma level, Individual animals) is reported as 26600 ng/mL, the concentration at 4 hr ([1]; male, cynomolgus monkey, plasma, po, 5 mg/kg, non-human primate, po 5 mg/kg, 4 hr, read-out: Plasma level, Mean) is reported as 27200 ng/mL and the concentration at 6 hr ([1]; male, cynomolgus monkey, plasma, po, 5 mg/kg, non-human primate, po 5 mg/kg, 6 hr, read-out: Plasma level, Individual animals) is reported as 26700 ng/mL. The concentration at 6 hr ([1]; male, cynomolgus monkey, plasma, po, 5 mg/kg, non-human primate, po 5 mg/kg, 6 hr, read-out: Plasma level, Mean) was 26600 ng/mL, the concentration at 8 h ([1]; male, cynomolgus monkey, plasma, po, 5 mg/kg, non-human primate, po 5 mg/kg, 8 hr, read-out: Plasma level, Individual animals) was 23900 ng/mL and the concentration at 8 h ([1]; male, cynomolgus monkey, plasma, po, 5 mg/kg, non-human primate, po 5 mg/kg, 8 hr, read-out: Plasma level, Mean) was 23900 ng/mL. The concentration at 12 h ([1]; male, cynomolgus monkey, plasma, po, 5 mg/kg, non-human primate, po 5 mg/kg, 12 hr, read-out: Plasma level, Individual animals) was 16700 ng/mL, the concentration at 12 h ([1]; male, cynomolgus monkey, plasma, po, 5 mg/kg, non-human primate, po 5 mg/kg, 12 hr, read-out: Plasma level, Mean) was 18600 ng/mL and the concentration at 24 h ([1]; male, cynomolgus monkey, plasma, po, 5 mg/kg, non-human primate, po 5 mg/kg, 24 hr, read-out: Plasma level, Individual animals) was 12700 ng/mL. It also gave a concentration at 24 h ([1]; male, cynomolgus monkey, plasma, po, 5 mg/kg, non-human primate, po 5 mg/kg, 24 hr, read-out: Plasma level, Mean) of 12500 ng/mL, a concentration at 36 h ([1]; male, cynomolgus monkey, plasma, po, 5 mg/kg, non-human primate, po 5 mg/kg, 36 hr, read-out: Plasma level, Individual animals) of 6800 ng/mL and a concentration at 36 h ([1]; male, cynomolgus monkey, plasma, po, 5 mg/kg, non-human primate, po 5 mg/kg, 36 hr, read-out: Plasma level, Mean) of 7190 ng/mL. The concentration at 48 h ([1]; male, cynomolgus monkey, plasma, po, 5 mg/kg, non-human primate, po 5 mg/kg, 48 hr, read-out: Plasma level, Mean) was 5380 ng/mL, the AUC(0-t) [1, 3] was 676 ± 129 µg·h/mL and the Tmax [1, 3] was 1.67 ± 0.58 h. The half-life ([1]; male, cynomolgus monkey, plasma, po, Cyno, 5.0 mg kg^−1 p.o., mean ± SD, n=3, read-out: T1/2, apparent terminal half-life (converted)) was 17.8 ± 4.2 h, the “Plasma level, Individual animals” value ([1]; non-human primate, iv 1.0 mg/kg, 0.0083 hr, 1 mg/kg) was 11200 ng/mL and 12100 ng/mL and the “Plasma level, Individual animals” value ([1]; non-human primate, iv 1.0 mg/kg, 0.25 hr, 1 mg/kg) was 10900 ng/mL and 10800 ng/mL. For the same compound, the “Plasma level, Individual animals” value ([1]; non-human primate, iv 1.0 mg/kg, 0.5 hr, 1 mg/kg) was 10000 ng/mL and 9400 ng/mL, the “Plasma level, Individual animals” value ([1]; non-human primate, iv 1.0 mg/kg, 1 hr, 1 mg/kg) was 8350 ng/mL and 9370 ng/mL and the “Plasma level, Individual animals” value ([1]; non-human primate, iv 1.0 mg/kg, 2 hr, 1 mg/kg) was 7340 ng/mL and 8000 ng/mL. The “Plasma level, Individual animals” value ([1]; non-human primate, iv 1.0 mg/kg, 4 hr, 1 mg/kg) was 6800 ng/mL and 7000 ng/mL, the “Plasma level, Individual animals” value ([1]; non-human primate, iv 1.0 mg/kg, 8 hr, 1 mg/kg) was 5290 ng/mL and 6220 ng/mL and the “Plasma level, Individual animals” value ([1]; non-human primate, iv 1.0 mg/kg, 12 hr, 1 mg/kg) was 3860 ng/mL and 6000 ng/mL. The “Plasma level, Individual animals” value ([1]; non-human primate, iv 1.0 mg/kg, 24 hr, 1 mg/kg) was 2510 ng/mL and 3430 ng/mL, the “Plasma level, Individual animals” value ([1]; non-human primate, iv 1.0 mg/kg, 36 hr, 1 mg/kg) was 1610 ng/mL and 1090 ng/mL and 2300 ng/mL and the “Plasma level, Individual animals” value ([1]; non-human primate, iv 1.0 mg/kg, 48 hr, 1 mg/kg) was 962 ng/mL and 671 ng/mL and 1530 ng/mL. The “Plasma level, Mean” value ([1]; non-human primate, iv 1.0 mg/kg, Predose) was 196 ng/mL, the “Plasma level, Individual animals” value ([1]; non-human primate, iv 1.0 mg/kg, Predose, 1 mg/kg) was 132 ng/mL and 64.6 ng/mL and 392 ng/mL and the “Plasma level, Individual animals” value ([1]; non-human primate, po 5 mg/kg, 0.25 hr, 5 mg/kg) was 9420 ng/mL and 14200 ng/mL. The “Plasma level, Individual animals” value ([1]; non-human primate, po 5 mg/kg, 0.5 hr, 5 mg/kg) was 15200 ng/mL and 23400 ng/mL, the “Plasma level, Individual animals” value ([1]; non-human primate, po 5 mg/kg, 1 hr, 5 mg/kg) was 31400 ng/mL and 33300 ng/mL and the “Plasma level, Individual animals” value ([1]; non-human primate, po 5 mg/kg, 2 hr, 5 mg/kg) was 29300 ng/mL and 32000 ng/mL. For the same compound, the “Plasma level, Individual animals” value ([1]; non-human primate, po 5 mg/kg, 4 hr, 5 mg/kg) was 25800 ng/mL and 29100 ng/mL, the “Plasma level, Individual animals” value ([1]; non-human primate, po 5 mg/kg, 6 hr, 5 mg/kg) was 22400 ng/mL and 30600 ng/mL and the “Plasma level, Individual animals” value ([1]; non-human primate, po 5 mg/kg, 8 hr, 5 mg/kg) was 21700 ng/mL and 26200 ng/mL. The “Plasma level, Individual animals” value ([1]; non-human primate, po 5 mg/kg, 12 hr, 5 mg/kg) was 16100 ng/mL and 22900 ng/mL, the “Plasma level, Individual animals” value ([1]; non-human primate, po 5 mg/kg, 24 hr, 5 mg/kg) was 9590 ng/mL and 15100 ng/mL and the “Plasma level, Individual animals” value ([1]; non-human primate, po 5 mg/kg, 36 hr, 5 mg/kg) was 5230 ng/mL and 9530 ng/mL. For the same compound, the “Plasma level, Individual animals” value ([1]; non-human primate, po 5 mg/kg, 48 hr, 5 mg/kg) was 4550 ng/mL and 2950 ng/mL and 8650 ng/mL and the remaining at 0.5 h, 1 μM [2] was 94%.
